# According to patent publication US20200024278A1, “COMPOSITION COMPRISING ANTIBIOTIC COMPOUND AND AN HETEROCYCLIC COMPOUND AND THEIR USE IN PREVENTING OR TREATING BACTERIAL INFECTIONS” (MUTABILIS, priority 2016, published 2020):
# Legend:
# Assay in all cases: MIC, broth microdilution (CLSI), substance alone or ATB combined with compound at 4 or 8 μg/mL
# ECO UFR39 = type: cell-based, E. coli; settings: ECO UFR39; for MIC ATB combined with compound: compound @4 μg/ml
# Summary of the method: (§1)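 Broth microdilution; ca-MHB; 5·10^5 CFU/mL; 35° C, 16-20 h; compound alone or fixed 4/8 μg/mL with antibiotic series; endpoint = no visible growth.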
# ECO 190317 = type: cell-based, E. coli; settings: ECO 190317; for MIC ATB combined with compound: compound @4 μg/ml
# Summary of the method: as §1
# ECL P99 = type: cell-based, E. cloacae; settings: ECL P99; for MIC ATB combined with compound: compound @4 μg/ml
# Summary of the method: as §1
# KPN BAA-1898 = type: cell-based, K. pneumoniae; settings: KPN BAA-1898; for MIC ATB combined with compound: compound @4 μg/ml
# Summary of the method: as §1
# KPN 6299 = type: cell-based, K. pneumoniae; settings: compound @4 μg/ml
# Summary of the method: as §1
# KPN UFR42 = type: cell-based, K. pneumoniae; settings: KPN UFR42; for MIC ATB combined with compound: compound @4 μg/ml
# Summary of the method: as §1
# PAE 105250 = type: cell-based, P. aeruginosa; settings: PAE 105250; for MIC ATB combined with compound: compound @4 μg/ml
# Summary of the method: as §1
# PAE UFR90 = type: cell-based, P. aeruginosa; settings: PAE UFR90; for MIC ATB combined with compound: compound @4 μg/ml
# Summary of the method: as §1
# PAE UFR48 = type: cell-based, P. aeruginosa; settings: PAE UFR48; for MIC ATB combined with compound: compound @4 μg/ml
# Summary of the method: as §1
# SAU 29213 = type: cell-based, S. aureus; settings: for MIC ATB combined with compound: compound @4 μg/ml, SAU 29213
# Summary of the method: as §1
# SPN 49619 = type: cell-based, S. pneumoniae; settings: SPN 49619; for MIC ATB combined with compound: compound @4 μg/ml
# Summary of the method: as §1
structure (smiles),measurement,setting,value
"NC[C@@H]1CC(=NOCC(N)=O)[C@@H]2CN1C(=O)N2OS(=O)(=O)[O-].O=C(O)C(F)(F)F.[Na+] [Example 4, 2,2,2-trifluroacetate and sodium [(2S,5S)-4-(2-amino-2-oxo-ethoxy)imino-2-(azaniumylmethyl)-7-oxo-1,6-diazabicyclo[3.2.1]octan-6-yl] sulfate]",MIC ATB combined with compound,ECO UFR39; ATB ATM,<0.031 µg/mL
same,MIC ATB combined with compound,ECO UFR39; ATB FEP,<0.031 µg/mL
same,MIC ATB combined with compound,ECO UFR39; ATB FOS,<0.125 µg/mL
same,MIC ATB combined with compound,ECO UFR39; ATB MEM,<0.031 µg/mL
same,MIC ATB combined with compound,ECO UFR39; ATB PIP,0.063 µg/mL
same,MIC,ECO UFR39; substance alone,0.25 µg/mL
same,MIC ATB combined with compound,ECO 190317; ATB ATM,<0.031 µg/mL
same,MIC ATB combined with compound,ECO 190317; ATB FEP,<0.031 µg/mL
same,MIC ATB combined with compound,ECO 190317; ATB FOS,<0.125 µg/mL
same,MIC ATB combined with compound,ECO 190317; ATB MEM,<0.031 µg/mL
same,MIC ATB combined with compound,ECO 190317; ATB PIP,<0.031 µg/mL
same,MIC,ECO 190317; substance alone,0.25 µg/mL
same,MIC ATB combined with compound,ECL P99; ATB ATM,<0.031 µg/mL
same,MIC ATB combined with compound,ECL P99; ATB FEP,<0.031 µg/mL
same,MIC ATB combined with compound,ECL P99; ATB FOS,<0.125 µg/mL
same,MIC ATB combined with compound,ECL P99; ATB MEM,<0.031 µg/mL
same,MIC ATB combined with compound,ECL P99; ATB PIP,<=0.031 μg/mL
same,MIC,ECL P99; substance alone,0.063 µg/mL
same,MIC ATB combined with compound,KPN BAA-1898; ATB ATM,8 µg/mL
same,MIC ATB combined with compound,KPN BAA-1898; ATB FEP,0.5 µg/mL
same,MIC ATB combined with compound,KPN BAA-1898; ATB FOS,32 µg/mL
same,MIC ATB combined with compound,KPN BAA-1898; ATB MEM,0.5 µg/mL
same,MIC ATB combined with compound,KPN BAA-1898; ATB PIP,>32 µg/mL
same,MIC,KPN BAA-1898; substance alone,>32 µg/mL
same,MIC ATB combined with compound,KPN 6299; ATB ATM,0.063 µg/mL
same,MIC ATB combined with compound,KPN 6299; ATB FEP,0.125 µg/mL
same,MIC ATB combined with compound,KPN 6299; ATB FOS,64 µg/mL
same,MIC ATB combined with compound,KPN 6299; ATB MEM,0.25 µg/mL
same,MIC ATB combined with compound,KPN 6299; ATB PIP,4 µg/mL
same,MIC ATB combined with compound,KPN UFR42; ATB ATM,1 µg/mL
same,MIC ATB combined with compound,KPN UFR42; ATB FEP,>32 µg/mL
same,MIC ATB combined with compound,KPN UFR42; ATB FOS,32 µg/mL
same,MIC ATB combined with compound,KPN UFR42; ATB MEM,>32 µg/mL
same,MIC ATB combined with compound,KPN UFR42; ATB PIP,>32 µg/mL
same,MIC,KPN UFR42; substance alone,>32 µg/mL
same,MIC ATB combined with compound,PAE 105250; ATB ATM,<0.031 µg/mL
same,MIC ATB combined with compound,PAE 105250; ATB FEP,<=0.031 μg/mL
same,MIC ATB combined with compound,PAE 105250; ATB FOS,8 µg/mL
same,MIC ATB combined with compound,PAE 105250; ATB MEM,<0.031 µg/mL
same,MIC ATB combined with compound,PAE 105250; ATB PIP,<=0.031 μg/mL
same,MIC,PAE 105250; substance alone,32 µg/mL
same,MIC ATB combined with compound,PAE UFR90; ATB ATM,<0.031 µg/mL
same,MIC ATB combined with compound,PAE UFR90; ATB FEP,<0.031 µg/mL
same,MIC ATB combined with compound,PAE UFR90; ATB FOS,<0.125 µg/mL
same,MIC ATB combined with compound,PAE UFR90; ATB MEM,<0.031 µg/mL
same,MIC ATB combined with compound,PAE UFR90; ATB PIP,<0.031 µg/mL
same,MIC,PAE UFR90; substance alone,2 µg/mL
same,MIC ATB combined with compound,PAE UFR48; ATB ATM,<0.031 µg/mL
same,MIC ATB combined with compound,PAE UFR48; ATB FEP,<0.031 µg/mL
same,MIC ATB combined with compound,PAE UFR48; ATB FOS,<0.125 µg/mL
same,MIC ATB combined with compound,PAE UFR48; ATB MEM,<0.031 µg/mL
same,MIC ATB combined with compound,PAE UFR48; ATB PIP,<0.031 µg/mL
same,MIC,PAE UFR48; substance alone,4 µg/mL
same,MIC ATB combined with compound,SAU 29213; ATB ATM,>32 µg/mL
same,MIC ATB combined with compound,SAU 29213; ATB FEP,4 µg/mL
same,MIC ATB combined with compound,SAU 29213; ATB FOS,2 µg/mL
same,MIC ATB combined with compound,SAU 29213; ATB MEM,0.125 µg/mL
same,MIC ATB combined with compound,SAU 29213; ATB PIP,4 µg/mL
same,MIC,"SAU 29213; substance alone, SAU 29213 (MSSA 29213)",>32 µg/mL
same,MIC ATB combined with compound,SPN 49619; ATB ATM,>32 µg/mL
same,MIC ATB combined with compound,SPN 49619; ATB FEP,0.063 µg/mL
same,MIC ATB combined with compound,SPN 49619; ATB FOS,32 µg/mL
same,MIC ATB combined with compound,SPN 49619; ATB MEM,0.063 µg/mL
same,MIC ATB combined with compound,SPN 49619; ATB PIP,0.5 µg/mL
same,MIC,SPN 49619; substance alone,32 µg/mL
